Measurements taken from PMC7580722, “Design of new disubstituted imidazo[1,2-b]pyridazine derivatives as selective Haspin inhibitors. Synthesis, binding mode and anticancer biological evaluation” (Journal of Enzyme Inhibition and Medicinal Chemistry, 2020).

Columns and labels:
HBL100 = test: Cell viability, monolayer (2D), MTS assay; assay type: cell-based; conditions: Homo sapiens, HBL-100, 48 h
RnDYRK1A = test: DYRK1A kinase assay; assay type: biochemical, Rn (rat); conditions: SI = IC50 kinase X/IC50 Haspin
Description: (§1) Values are IC50 expressed in µM and calculated from dose–response curves (each point on the curves was performed in triplicate). Selectivity indexes (SI; in brackets) are calculated as follows: SI = IC50 kinase X/IC50 Haspin. ND: not determined. *IC50 values obtained using the ADP-Glo methodology (see Experimental section, Supplementary Material). […]
The reaction was carried out as described in general procedure A using 4 (0.150 g, 0.58 mmol, 1 equiv.), 2-aminopyrimidine-5-boronic acid (0.122 g, 0.88 mmol, 1.5 equiv.) and Cs2CO3 (0.575 g, 1.75 mmol, 3 equiv.). The […]
The reaction was carried out as described in general procedure A using 4 (0.100 g, 0.39 mmol, 1 equiv.), 1-naphthaleneboronic acid (0.083g, 0.47 mmol, 1.2 equiv.) and Cs2CO3 (0.381 g, 1.17 mmol, 3 equiv.). The crude […]
Recombinant protein kinases were expressed and purified from E. coli (HsHaspin kinase domain aa470-798, HsCdk5/p25, RnDYRK1A kinase domain aa1-499, HsPIM1, MmCLK1) or baculovirus/Sf9 cells (HsCdk2/Cyclin A, HsCdk9/Cyclin T). […] The wet filter-bound radioactivity was determined in the presence of 20 µl scintillation fluid (GE healthcare) with a TopCount® Scintillation and Luminescence Counter (PerkinElmer). IC50 values were calculated from dose-response curves […]

HsCdk2/Cyclin A = biological target: T1, HsCdk2/Cyclin A (Homo sapiens, UniProt P24941); test: CDK2 kinase assay; assay type: biochemical
T1 construct: made in house; host or cells: baculovirus/Sf9 cells
Description: as §1
A, HsCdk9/Cyclin T). Native SscCK1δ /ε and SscGSK3α/β were purified from pig brain whereas HsPlk1, HsCdk1 and HsAurora B were purchased from ProQinase and SignalChem respectively. Kinase assays were performed in […]
mCi/ml; PerkinElmer) in a final volume of 30 µl as previously reported 51. After 30 min incubation at 30°C, the reaction mix was spotted onto GE healthcare P81 phosphocellulose paper using a FilterMate Harvester (PerkinElmer), and the filter was extensively washed with a 1% phosphoric acid solution. The wet filter-bound radioactivity was determined in the presence of 20 µl scintillation fluid (GE healthcare) with a TopCount® Scintillation and Luminescence Counter (PerkinElmer). IC50 values were calculated from dose-response curves […]
Kinase activities using the ADP-Glo methodology (ADP-Glo Kinase Assay; Promega) were assayed according to the assay described in Nguyen et al. 52 and Ibrahim et al. 53. […]

selectivity for DYRK1A vs Haspin (RnDYRK1A): 50 fold
selectivity for CDK2 vs Haspin (HsCdk2/Cyclin A; SI = IC50 kinase X/IC50 Haspin): 716 fold
IC50 (HsCdk2/Cyclin A; read-out: IC50 CDK2): 4.3 µM
Structure (SMILES): c1cc2[nH]ncc2cc1-c1cnc2ccc(OC[C@@H]3CNCCO3)nn12 [Compound 21]
EC50 (HBL100): > 10 µM
